# Counter-ions that a name gives are not always drawn.
# What was measured:
# Dopamine D2 receptor = biological target: T1, Dopamine D2 receptor (Rattus norvegicus, UniProt P61169); test: Dopamine D2 receptor binding assay ([3H]-raclopride); details: Dopamine D2 receptor binding test, rat corpus striatum membrane, Ki calculated from IC50 by Cheng-Prussoff formula
# T1 construct: from tissue; host or cells: Wistar rat brain, corpus striatum membranes
# Method: 1) Dopamine D2 Receptor Binding Assay
# The assay was performed according to the method by Kohler et al. (Kohler C, Hall H, Ogren S O and Gawell L, Specific in vitro and in vivo binding of 3H-raclopride. A potent substituted benzamide drug with high affinity for dopamine D-2 receptors in the rat brain. Biochem. Pharmacol., 1985; 34: 2251-2259).
# Wistar male rats were decapitated, the brain was retrieved immediately and corpus striatum was taken out. It was homogenized in 50 mM tris(hydroxymethyl)aminomethane (Tris)-hydrochloric acid buffer (pH 7.4) of a volume 50 times of the weight of the tissue using a homogenizer with a high-speed rotating blade, and centrifuged at 4° C., 48,000×g for 10 minutes. The obtained precipitate was suspended again in the above-described buffer of a volume 50 times of the weight of the tissue and after incubated at 37° C. for 10 minutes, centrifuged in the above-described condition. The obtained precipitate was suspended in 50 mM (Tris)-hydrochloric acid buffer (containing 120 mM NaCl, 5 mM KCl, 2 mM CaCl2, 1 mM MgCl2, pH 7.4) of a volume 25 times of the weight of the tissue and preserved by freezing at −85° C. till it was used for binding assay as a membrane specimen.
# The binding assay was performed using 40 μl of the membrane specimen, 20 μl of [^3H]-raclopride (final concentration 1 to 2 nM), 20 μl of a test drug and 50 mM Tris-hydrochloric acid buffer (containing 120 mM NaCl, 5 mM KCl, 2 mM CaCl2, 1 mM MgCl2, pH 7.4) so that the total amount was 200 μl (final dimethylsulfoxide concentration 1%). The reaction was performed at room temperature for 1 hour and terminated by conducting suction filtration with a cell harvester on a glass fiber filter plate. The filter plate made of glass fiber was washed with 50 mM Tris-hydrochloric acid buffer (pH 7.4), and after dried, a microplate liquid scintillation cocktail was added and the radioactivity was measured with a microplate scintillation counter. Radioactivity in the presence of 10 μM (+)-butaclamol hydrochloride was assumed as nonspecific binding.
# (§1) IC50 value was calculated from concentration-dependent reaction using a non-linear analysis program. Ki value was calculated from IC50 value using Cheng-Prussoff formula.
# [1] = biological target: T2, Serotonin 5-HT2A receptor (Rattus norvegicus, UniProt P14842); test: Serotonin 5-HT2A receptor binding assay ([3H]-Ketanserin); details: Serotonin 5-HT2A receptor binding test, rat frontal cortex membrane, Ki calculated from IC50 by Cheng-Prussoff formula
# T2 construct: from tissue; host or cells: Wistar rat brain, frontal cortex membranes
# T2 sequence (P14842 whole entry): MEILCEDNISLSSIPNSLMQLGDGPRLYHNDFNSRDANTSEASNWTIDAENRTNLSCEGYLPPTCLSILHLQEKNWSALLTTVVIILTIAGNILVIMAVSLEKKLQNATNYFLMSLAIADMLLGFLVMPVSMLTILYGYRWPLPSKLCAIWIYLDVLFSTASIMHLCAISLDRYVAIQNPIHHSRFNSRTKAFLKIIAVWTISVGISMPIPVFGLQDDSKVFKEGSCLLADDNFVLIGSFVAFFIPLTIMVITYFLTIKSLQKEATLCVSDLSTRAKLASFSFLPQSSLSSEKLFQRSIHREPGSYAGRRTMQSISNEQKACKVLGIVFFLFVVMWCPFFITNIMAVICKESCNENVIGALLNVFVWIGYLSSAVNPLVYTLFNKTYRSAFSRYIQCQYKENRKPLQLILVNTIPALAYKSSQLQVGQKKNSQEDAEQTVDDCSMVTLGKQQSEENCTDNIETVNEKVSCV
# Method: 2) Serotonin 5-HT2A Receptor Binding Assay
# The assay was performed according to the method by Leysen J E et al. (Leysen J E, Niemegeers C J E, Van Nueten J M and Laduron P M. [3H] Ketanserin (R 41 468), a selective 3H-ligand for serotonin 2 receptor binding sites. Mol. Pharmacol., 1982, 21: 301-314).
# Wistar male rats were decapitated, the brain was retrieved immediately and frontal cortex was taken out. It was homogenized in 0.25 M sucrose of a volume 10 times of the weight of the tissue using a Teflon glass homogenizer, and centrifuged at 4° C., 1,000×g for 10 minutes. The obtained supernatant was transferred to another centrifuge tube and suspended in 0.25 M sucrose of a volume 5 times of the weight of the tissue and the precipitate was centrifuged in the above-described condition. The obtained supernatant was combined with the supernatant obtained above and adjusted to a volume 40 times of the weight of the tissue with 50 mM Tris-hydrochloric acid buffer (pH 7.4), and centrifuged at 4° C., 35,000×g for 10 minutes. The obtained precipitate was suspended again in the above-described buffer of a volume 40 times of the weight of the tissue and centrifuged in the above-described condition. The obtained precipitate was suspended in the above-described buffer of a volume 20 times of the weight of the tissue and preserved by freezing at −85° C. till it was used for binding assay as a membrane specimen.
# The binding assay was performed using 40 μl of the membrane specimen, 20 μl of [^3H]-Ketanserin (final concentration 1 to 3 nM), 20 μl of a test drug and 50 mM Tris-hydrochloric acid buffer (pH 7.4) so that the total amount was 200 μl (final dimethylsulfoxide concentration 1%). The reaction was performed at 37° C. for 20 minutes and terminated by conducting suction filtration with a cell harvester on a glass fiber filter plate.
# The filter plate made of glass fiber was washed with 50 mM Tris-hydrochloric acid buffer (pH 7.4), and after dried, a microplate liquid scintillation cocktail was added and the radioactivity was measured with a microplate scintillation counter. Radioactivity in the presence of 10 μM spiperone was assumed as nonspecific binding.
# as §1
# T1 sequence (P61169 whole entry): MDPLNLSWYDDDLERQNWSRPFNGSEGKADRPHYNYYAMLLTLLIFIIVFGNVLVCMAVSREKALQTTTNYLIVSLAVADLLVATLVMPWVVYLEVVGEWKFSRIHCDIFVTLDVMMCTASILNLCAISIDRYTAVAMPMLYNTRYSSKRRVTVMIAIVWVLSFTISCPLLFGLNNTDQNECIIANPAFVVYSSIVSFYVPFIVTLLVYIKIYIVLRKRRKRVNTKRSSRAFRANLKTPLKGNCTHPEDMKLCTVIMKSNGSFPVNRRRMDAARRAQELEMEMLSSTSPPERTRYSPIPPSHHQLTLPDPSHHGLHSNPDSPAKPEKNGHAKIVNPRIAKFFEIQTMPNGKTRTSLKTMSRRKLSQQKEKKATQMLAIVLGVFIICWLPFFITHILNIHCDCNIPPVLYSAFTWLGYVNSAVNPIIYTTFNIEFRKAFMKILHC
SMILES,melting point,Ki (Dopamine D2 receptor),Ki [1]
O=C1Cc2ccc(OCCCCN3CCN(c4cccc5sccc45)CC3)cc2N1 (as salt: hydrochloride) [Example 127],215 to 217 °C,,
CN(C)Cc1ccc(OCCCN2CCN(c3cccc4sccc34)CC2)c(Cl)c1 [Example 303],,1 nM,2.5 nM
c1cc(N2CCN(CCCOc3ccc(CN4CCOCC4)cc3)CC2)c2ccsc2c1 [Example 313],,0.7 nM,1.1 nM
COc1cc(NC=O)cc(C)c1OCCCN1CCN(c2cccc3sccc23)CC1 [Example 354],,0.2 nM,0.6 nM
COc1cc(N2CCCC2=O)cc(CO)c1OCCCN1CCN(c2cccc3sccc23)CC1 [Example 359],,0.2 nM,1.1 nM
c1cc(N2CCN(CCCCOc3ccncc3)CC2)c2ccsc2c1 [Example 80],,1.6 nM,3.3 nM
CCNCc1ccc(OCCCN2CCN(c3cccc4sccc34)CC2)cc1 [Example 286],,0.2 nM,0.8 nM
O=C(c1ccc(OCCCN2CCN(c3cccc4sccc34)CC2)cc1)N1CCN(c2ccncc2)CC1 [Example 706],,1 nM,0.9 nM
CCN(CC)CCNC(=O)c1ccc(OCCCN2CCN(c3cccc4sccc34)CC2)cc1 [Example 160],,0.4 nM,0.6 nM
COC(=O)Nc1ccc(OCCCN2CCN(c3cccc4sccc34)CC2)c(F)c1 [Example 363],,2 nM,1.1 nM
CNC(=O)c1ccc(OC)c(OCCCN2CCN(c3cccc4sccc34)CC2)c1 [Example 281],,0.3 nM,0.6 nM
CCNC(=O)c1ccc(OCCCN2CCN(c3cccc4sccc34)CC2)nc1 [Example 26],,2.6 nM,0.8 nM
O=C1CCc2ccc(OCCCN3CCN(c4cccc5sccc45)CC3)cc21 [Example 125],,2 nM,3.9 nM
O=C(NCCCn1ccnc1)c1ccc(OCCCN2CCN(c3cccc4sccc34)CC2)cc1 [Example 650],,1.2 nM,0.6 nM
O=C1Nc2cc(OCCCCN3CCN(c4cccc5sccc45)CC3)ccc2CO1 [Example 133],,0.3 nM,4.7 nM
CCN(C)Cc1ccc(OCCCN2CCN(c3cccc4sccc34)CC2)c(C)c1 [Example 307],,0.3 nM,0.7 nM
CCNC(=O)c1ccnc(OCCCN2CCN(c3cccc4sccc34)CC2)c1 [Example 32],,2.5 nM,1.4 nM
O=C1Cc2ccc(OCCCCN3CCN(c4cccc5sccc45)CC3)cc2N1 [Example 127],,0.4 nM,2.4 nM
CC(C)N(CCNC(=O)c1ccc(OCCCN2CCN(c3cccc4sccc34)CC2)cc1)C(C)C [Example 546],,0.6 nM,0.7 nM
Cn1c(=O)oc2cc(OCCCN3CCN(c4cccc5sccc45)CC3)ccc21 [Example 1016],,2.2 nM,2.3 nM
"COC(=O)N(C)c1cc(C)c(OCCCN2CCN(c3cccc4sccc34)CC2)c(OC)c1 [Example 17, methyl N-methyl-{4-[3-(4-benzo[b]thiophen-4-yl-piperazin-1-yl)propoxy]-3-methoxy-5-methylphenyl}carbamate hydrochloride]",,0.6 nM,3.4 nM
CCS(=O)(=O)Nc1ccc(OCCCN2CCN(c3cccc4sccc34)CC2)cc1 [Example 345],,1.6 nM,1.9 nM
Cn1cnc2ccc(OCCCN3CCN(c4cccc5sccc45)CC3)cc2c1=O [Example 95],,1.9 nM,2.3 nM
CCN(CC)CCc1ccc(OCCCN2CCN(c3cccc4sccc34)CC2)cc1 [Example 368],,0.4 nM,0.7 nM

SMILES,melting point,Ki (Dopamine D2 receptor),Ki [1]
Cc1ccc(OCCCN2CCN(c3cccc4sccc34)CC2)cn1 [Example 40],,3.1 nM,0.6 nM
CC(=O)Nc1ccc(OCCCN2CCN(c3cccc4sccc34)CC2)cc1 [Example 343],,0.9 nM,0.5 nM
COc1cc(N2CCOC2=O)cc(C)c1OCCCN1CCN(c2cccc3sccc23)CC1 [Example 358],,0.2 nM,1.1 nM
CN(C)CCc1ccc(OCCCN2CCN(c3cccc4sccc34)CC2)cc1 [Example 382],,0.5 nM,0.6 nM
Cc1cc(=O)oc2cc(OCCCN3CCN(c4cccc5sccc45)CC3)ccc12 [Example 115],,1.6 nM,3.7 nM
CCNC(=O)c1cc(OCCCN2CCN(c3cccc4sccc34)CC2)n(C)n1 [Example 62],,1.6 nM,4.7 nM
CNC(=O)c1cc(OCCCN2CCN(c3cccc4sccc34)CC2)cs1 [Example 76],,2.5 nM,1.7 nM
CNC(=O)c1cc(OCCCN2CCN(c3cccc4sccc34)CC2)ncn1 [Example 58],,2 nM,4.9 nM
"NC(=O)c1csc(OCCCN2CCN(c3cccc4sccc34)CC2)n1 [Example 7, 2-[3-(4-benzo[b]thiophen-4-yl-piperazin-1-yl)propoxy]thiazole-4-carboxamide]",,0.8 nM,2.9 nM
CN1Cc2ccc(OCCCN3CCN(c4cccc5sccc45)CC3)cc2C1=O [Example 123],,0.7 nM,1.4 nM
O=C1CCCc2ccc(OCCCN3CCN(c4cccc5sccc45)CC3)cc2N1 [Example 1026],,1.9 nM,3.5 nM
Cn1cnc2cc(OCCCN3CCN(c4cccc5sccc45)CC3)ccc21 [Example 121],,1.1 nM,1.5 nM
CN1CC(=O)N(C)c2ccc(OCCCN3CCN(c4cccc5sccc45)CC3)cc2C1=O [Example 1034],,2.1 nM,3.1 nM
CCNC(=O)c1csc(OCCCN2CCN(c3cccc4sccc34)CC2)n1 [Example 73],,1.3 nM,5.6 nM
O=c1[nH]c2ccc(OCCCN3CCN(c4cccc5sccc45)CC3)cc2[nH]1 [Example 112],,1 nM,0.7 nM
O=C1CCOc2cc(OCCCN3CCN(c4cccc5sccc45)CC3)ccc2N1 [Example 1027],,1.9 nM,2 nM
COc1cc(N2CCN(C(C)=O)CC2)cc(CO)c1OCCCN1CCN(c2cccc3sccc23)CC1 [Example 1084],,0.1 nM,1.4 nM
CN1CCN(Cc2ccc(OCCCN3CCN(c4cccc5sccc45)CC3)cc2)CC1 [Example 314],,0.8 nM,0.8 nM
"Cn1nc(C(N)=O)cc1OCCCN1CCN(c2cccc3sccc23)CC1 [Example 4, 5-[3-(4-benzo[b]thiophen-4-yl-piperazin-1-yl)propoxy]-1-methyl-1H-pyrazole-3-carboxamide]",,1.9 nM,7.7 nM
CC1Oc2ccc(OCCCCN3CCN(c4cccc5sccc45)CC3)cc2NC1=O (stereo not drawn) [Example 144],,0.4 nM,1.4 nM
CC1(C)C(=O)Nc2ccc(OCCCN3CCN(c4cccc5sccc45)CC3)cc21 [Example 1014],,3.3 nM,4.2 nM
O=C1NCc2ccc(OCCCCN3CCN(c4cccc5sccc45)CC3)cc2N1 [Example 146],,0.1 nM,2.4 nM
CCNC(=O)c1cc(OCCCN2CCN(c3cccc4sccc34)CC2)no1 [Example 72],,3.4 nM,3.4 nM

# From patent publication US8071600B2, “Derivatives of 4-piperazin-1-yl-4-benzo[B]thiophene suitable for the treatment of CNS disorders” (Otsuka Pharmaceutical Co., Ltd., priority 2005, dated 2011)
